Patent publication US20160046672A1, “STAPLING eIF4E INTERACTING PEPTIDES” (AGENCY FOR SCIENCE, TECHNOLOGY AND RESEARCH, priority 2013, published 2016)

Tests used:
[1] = circular dichroism; conditions: 5 mM sodium phosphate; pH 7.0; ns °C; 0.5 or 2 mg/mL
[2] = Circular dichroism, percent α-helicity in solution; type: physicochemical; conditions: CD, 5 mM sodium phosphate buffer pH 7.0
Method: CD was measured on a JASCO J-810 spectropolarimeter, and spectra were either recorded with a quartz cuvette (Helmer) with a pathlength of 0.01 cm or 0.1 cm in 5 mM sodium phosphate buffer (pH 7.0). FUV CD spectra were recorded from 260 nm to 200 nm at a peptide concentration of either 2 mg/ml or 0.5 mg/ml, respectively. The CD signal was converted into mean residue ellipticity in units of degree·cm^2·dmol^−1·residue^−1. CD spectra were recorded at a data pitch of 0.2 nm at 50 nm min^−1, a response time of 2 s, and a bandwidth of […]. Once converted to mean residue ellipticity, percent α-helicity can be calculated with equation (1) and (2): […]

[3] = molecular target: T1, eIF4E (Homo sapiens, UniProt P06730); assay: Competitive fluorescence anisotropy (FP) assay against FAM labeled tracer peptide; type: binding
T1 construct: made in house
Method: Apparent Kd values were determined for a variety of molecules via competitive anisotropy anisotropy experiments. Titrations were carried out with the concentrations eIF4E held constant at 200 nM, respectively and the labeled peptide at 50 nM. […] Apparent Kd values were determined by fitting the experimental data to the equations shown below:
[L]st and [L]t denote labeled ligand and total unlabeled ligand input concentrations, respectively. Kd2 is the dissociation constant of the interaction between the unlabelled ligand and the protein. […] Readings were carried out with an Envision Multilabel Reader (PerkinElmer). […] All titrations were carried out in triplicate. Curve-fitting was carried out using Prism 4.0 (GraphPad).

[4] = molecular target: T1, eIF4E; assay: eIF4E affinity (SPR/FP, method not named); type: binding
Method: Apparent Kd values were determined for a variety of molecules via competitive anisotropy anisotropy experiments. Titrations were carried out with the concentrations eIF4E held constant at 200 nM, respectively and the labeled peptide at 50 nM. The competing molecules were then titrated against complex of the FAM labeled peptide and protein. Apparent Kd values were determined by fitting the experimental data to the equations shown below: […]
Six buffer blanks were first injected to equilibrate the instrument fully and then a solvent correction curve was performed followed by a further two blank injections. […] Using a flow rate of 50 μl/min, compounds were injected for 60 s and dissociation was monitored for 180 s. The data collection rate was 10 Hz. Kds were determined using the BiaEvaluation software (Biacore) and calculated kinetically from the dissociation and association phase data for each of the peptides. The kinetic data were fitted to 1:1 binding models. Each individual peptide Kd was determined from three separate titrations. Within each titration at least two concentration points were duplicated to ensure stability and robustness of the chip surface.

[5] = tested on: MDA-MB-231 cells; assay: Normalized luminescence / cell viability, FIG. 12A; type: cell-based; conditions: MDA-MB-231, increasing peptide concentration
Method: (§1) FIG. 12A is a dot plot representing normalized luminescence in MDA-MB-468 and MDA-MB-231 cells over increased concentration of staple peptides. MDA-MB-468 and MDA-MB-231 cells were lysed and a recombinant luciferase protein was added to the lysed cells.

[6] = tested on: MDA-MB-468 cells; assay: Normalized luminescence / cell viability, FIG. 12A; type: cell-based; conditions: MDA-MB-468, increasing peptide concentration
Method: as §1

[7] = tested on: MDA-MB-231 cells; assay: Western Blot of protein levels in treated cells, FIG. 12B; type: cell-based; conditions: MDA-MB-231, absence or presence of 10% Fetal calf serum, 1% DMSO
Excerpt: Actin protein is a loading control to indicate that the same amount of proteins was loaded into each well.

T1 sequence (P06730 whole entry): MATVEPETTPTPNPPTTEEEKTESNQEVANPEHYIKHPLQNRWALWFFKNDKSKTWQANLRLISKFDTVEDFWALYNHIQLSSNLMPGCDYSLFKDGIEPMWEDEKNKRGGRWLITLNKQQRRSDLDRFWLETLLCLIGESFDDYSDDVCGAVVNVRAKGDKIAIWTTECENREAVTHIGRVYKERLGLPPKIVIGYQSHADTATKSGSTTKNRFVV

| SMILES | helicity [1] [%] | Helicity (%) [2] | displacement of the FAM labeled peptide in the competition assay [3] | affinity / binding to eIF4E (in words) [4] | cell viability (normalized luminescence) [5] | cell viability (normalized luminescence) [6] | Bcl-XL protein levels [7] | survivin protein levels [7] | fold decrease / improvement in Kd over eIF4G^D5S ([4]; stronger binding) [fold] |
| --- | --- | --- | --- | --- | --- | --- | --- | --- | --- |
| CC(=O)N[C@@H](CCCCN)C(=O)N[C@@H](CCCCN)C(=O)N[C@@H](CCCNC(=N)N)C(=O)N[C@@H](Cc1ccc(O)cc1)C(=O)N[C@@H](CO)C(=O)N[C@@H](CCCNC(=N)N)C(=O)N[C@@H](CCC(=O)O)C(=O)NC(C)(C)C(=O)N[C@@H](CC(C)C)C(=O)N[C@@H](CC(C)C)C(=O)NCC(=O)NC(C)(C)C(N)=O [TIP-02, KKRYSREXLLGX] | 0 | 0/ % | failed to displace the FAM labeled peptide | greatly reduced affinity for eIF4E |  |  |  |  |  |
| CC(=O)N[C@@H](CCCCN)C(=O)N[C@@H](CCCCN)C(=O)N[C@@H](CCCNC(=N)N)C(=O)N[C@@H](Cc1ccc(O)cc1)C(=O)N[C@@H](CO)C(=O)N[C@@H](CCCNC(=N)N)C(=O)N[C@@H](CCC(=O)O)C(=O)N[C@]1(C)CCCC=CCCC[C@@](C)(C(=O)N[C@@H](Cc2ccccc2)C(N)=O)NC(=O)[C@H](CC(C)C)NC(=O)[C@H](CC(C)C)NC1=O [sTIP-03, KKRYSRE*LL*F] | 45 |  |  |  | decreases cell viability in a dose-dependent manner | decreases cell viability in a dose-dependent manner | down-regulates | down-regulates | 17 |
